Key:
[1] = target: 5-hydroxytryptamine receptor 6 (Homo sapiens, UniProt P50406); type: cell membranes, HeLa, Membrane; further: in other assays of this panel Not Active means under 50% inhibition at 10 µM
[2] = target: Aldo-keto reductase family 1 member B1 (Rattus norvegicus, UniProt P07943); type: tissue-based, Lens of camera-type eye;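 further: inhibition of aldose reductase enzyme activity, measured with DL-glyceraldehyde as the substrate; in other assays of this panel Not Active means under 50% inhibition at 10 µM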
Adenosine receptor A2a = Adenosine receptor A2a (Homo sapiens, UniProt P29274); experiment: DRUGMATRIX: Adenosine A2A radioligand binding (ligand: […]); type: cell membranes, HEK293, Membrane; details: hek293; Not Active = under 50% inhibition at 10 µM
Sequence of Adenosine receptor A2a (P29274 whole entry): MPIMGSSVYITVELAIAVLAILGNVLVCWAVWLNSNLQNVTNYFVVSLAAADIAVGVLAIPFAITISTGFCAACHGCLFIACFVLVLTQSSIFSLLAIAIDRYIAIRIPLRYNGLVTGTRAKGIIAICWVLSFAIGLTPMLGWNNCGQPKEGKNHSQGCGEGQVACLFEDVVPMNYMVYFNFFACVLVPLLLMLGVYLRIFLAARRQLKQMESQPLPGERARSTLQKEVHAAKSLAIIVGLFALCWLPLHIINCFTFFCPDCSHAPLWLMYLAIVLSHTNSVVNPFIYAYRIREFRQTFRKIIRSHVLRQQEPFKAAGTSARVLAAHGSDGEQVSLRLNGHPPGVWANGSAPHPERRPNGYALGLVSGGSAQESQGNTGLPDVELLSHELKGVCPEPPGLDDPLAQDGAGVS

[3] = target: 5-hydroxytryptamine receptor 1B (Rattus norvegicus, UniProt P28564); type: cell membranes, Wistar, Cerebral cortex, Membrane; further: in other assays of this panel Not Active means under 50% inhibition at 10 µM
Sequence of 5-hydroxytryptamine receptor 1B (P28564 whole entry): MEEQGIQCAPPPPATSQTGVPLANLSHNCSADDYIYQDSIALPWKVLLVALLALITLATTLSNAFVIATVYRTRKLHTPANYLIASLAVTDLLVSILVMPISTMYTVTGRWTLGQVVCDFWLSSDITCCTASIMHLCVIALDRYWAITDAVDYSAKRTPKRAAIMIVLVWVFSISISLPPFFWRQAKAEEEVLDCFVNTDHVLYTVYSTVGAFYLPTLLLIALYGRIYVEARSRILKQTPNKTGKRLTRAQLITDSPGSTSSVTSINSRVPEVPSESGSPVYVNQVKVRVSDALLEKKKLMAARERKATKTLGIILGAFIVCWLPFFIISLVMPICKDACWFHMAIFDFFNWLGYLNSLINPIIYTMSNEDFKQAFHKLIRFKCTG

[4] = DRUGMATRIX: Glutamate, Kainate radioligand binding (ligand: [3H] Kainic acid); type: cell membranes, Rattus norvegicus, Wistar, Brain, Membrane; details: Not Active = under 50% inhibition at 10 µM
[5] = DRUGMATRIX: GABAA, Chloride Channel, TBOB radioligand binding (ligand: [3H] TBOB); type: cell membranes, Rattus norvegicus, Wistar, Cerebral cortex, Membrane; details: Not Active = under 50% inhibition at 10 µM

Sequence of 5-hydroxytryptamine receptor 6 (P50406 whole entry): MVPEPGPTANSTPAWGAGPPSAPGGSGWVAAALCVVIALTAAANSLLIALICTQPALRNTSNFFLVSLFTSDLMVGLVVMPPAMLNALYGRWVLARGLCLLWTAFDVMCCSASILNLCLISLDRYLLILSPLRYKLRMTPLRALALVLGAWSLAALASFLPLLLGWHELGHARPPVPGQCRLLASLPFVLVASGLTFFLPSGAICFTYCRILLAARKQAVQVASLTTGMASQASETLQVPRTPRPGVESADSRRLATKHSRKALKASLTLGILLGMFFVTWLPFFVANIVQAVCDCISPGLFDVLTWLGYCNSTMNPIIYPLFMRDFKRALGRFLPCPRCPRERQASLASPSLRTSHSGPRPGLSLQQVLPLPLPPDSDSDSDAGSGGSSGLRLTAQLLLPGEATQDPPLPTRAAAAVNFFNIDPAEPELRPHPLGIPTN

Molecule	IC50 ([1]; hela)	IC50 [2]	IC50 (Adenosine receptor A2a)	IC50 [3]	IC50 [4]	Ki [4]	IC50 [5]	Ki [5]	Ki ([1]; hela)	Ki [2]	Ki (Adenosine receptor A2a)	Ki [3]	IC50 ([1]; read-out: IC50) [nM]	Ki ([1]; read-out: Ki) [nM]
COc1ccc(C(=O)N2CCCC2=O)cc1	Not Active	Not Active	Not Active	Not Active	Not Active	Not Active	Not Active	Not Active						
GENTAMICIN	Not Active	Not Active	Not Active	Not Active	Not Active	Not Active	Not Active	Not Active	Not Active	Not Active	Not Active	Not Active		
CC(C)NNC(=O)c1ccncc1 [IPRONIAZID]	Not Active	Not Active	Not Active	Not Active	Not Active	Not Active	Not Active	Not Active						
CCCNCC(O)COc1ccccc1C(=O)CCc1ccccc1 (configuration not stated) [PROPAFENONE]		Not Active	Not Active	Not Active	Not Active	Not Active	Not Active	Not Active					1860	865
O=c1cc(N2CCOCC2)oc2c(-c3ccccc3)cccc12 [LY-294002]	Not Active	Not Active	Not Active	Not Active	Not Active	Not Active	Not Active	Not Active						
NCCCC(O)(P(=O)(O)O)P(=O)(O)O [ALENDRONIC ACID]	Not Active	Not Active	Not Active	Not Active	Not Active	Not Active	Not Active	Not Active						
Nc1ccc2c3c(cccc13)C(=O)NC2=O	Not Active	Not Active	Not Active	Not Active	Not Active	Not Active	Not Active	Not Active						
CC(C)(C)NC(=O)[C@H]1CC[C@H]2[C@@H]3CC[C@H]4NC(=O)C=C[C@]4(C)[C@H]3CC[C@]12C [FINASTERIDE]	Not Active	Not Active	Not Active	Not Active	Not Active	Not Active	Not Active	Not Active						
CC[C@H](C)[C@H]1O[C@]2(C=C[C@@H]1C)C[C@@H]1C[C@@H](C/C=C(\C)[C@@H](O[C@H]3C[C@H](OC)[C@@H](O[C@H]4C[C@H](OC)[C@@H](O)[C@H](C)O4)[C@H](C)O3)[C@@H](C)/C=C/C=C3\CO[C@@H]4[C@H](O)C(C)=C[C@@H](C(=O)O1)[C@]34O)O2.CO[C@H]1C[C@H](O[C@H]2[C@H](C)O[C@@H](O[C@@H]3/C(C)=C/C[C@@H]4C[C@@H](C[C@]5(C=C[C@H](C)[C@@H](C(C)C)O5)O4)OC(=O)[C@@H]4C=C(C)[C@@H](O)[C@H]5OC/C(=C\C=C\[C@@H]3C)[C@]54O)C[C@@H]2OC)O[C@@H](C)[C@@H]1O [ABAMECTIN]	Not Active	Not Active	Not Active	Not Active	Not Active	Not Active	Not Active	Not Active						
C#C[C@]1(OC(C)=O)CC[C@H]2[C@@H]3CCC4=C[C@@H](OC(C)=O)CC[C@@H]4[C@H]3CC[C@@]21C [ETHYNODIOL DIACETATE]	Not Active	Not Active	Not Active	Not Active	Not Active	Not Active	Not Active	Not Active						
CN/C(=N\CCSCc1nc[nH]c1C)NC#N [CIMETIDINE]	Not Active	Not Active	Not Active	Not Active	Not Active	Not Active	Not Active	Not Active						
COc1ccc2c3c1O[C@H]1C[C@@H](O)C=C[C@@]31CCN(C)C2 [GALANTAMINE]	Not Active	Not Active	Not Active	Not Active	Not Active	Not Active	Not Active	Not Active						
OC(CCCN1CCCCC1)(c1ccccc1)c1ccccc1 [DIPHENIDOL]	Not Active	Not Active	Not Active	Not Active	Not Active	Not Active	Not Active	Not Active						
CCC(=O)O[C@]1(C(=O)CCl)[C@@H](C)C[C@H]2[C@@H]3CCC4=CC(=O)C=C[C@]4(C)[C@@]3(F)[C@@H](O)C[C@@]21C [CLOBETASOL PROPIONATE]	Not Active	Not Active	Not Active	Not Active	Not Active	Not Active	Not Active	Not Active						
CCCN(CCC)S(=O)(=O)c1ccc(C(=O)O)cc1 [PROBENECID]	Not Active	Not Active	Not Active	Not Active	Not Active	Not Active	Not Active	Not Active						
O=C(O)CCNC(=O)c1ccccc1 [BETAMIPRON]	Not Active	Not Active	Not Active	Not Active	Not Active	Not Active	Not Active	Not Active						

Molecule	IC50 ([1]; hela)	IC50 [2]	IC50 (Adenosine receptor A2a)	IC50 [3]	IC50 [4]	Ki [4]	IC50 [5]	Ki [5]	Ki ([1]; hela)	Ki [2]	Ki (Adenosine receptor A2a)	Ki [3]	IC50 ([1]; read-out: IC50) [nM]	Ki ([1]; read-out: Ki) [nM]
C[C@H]1O[C@@H](n2cc(F)c(=O)[nH]c2=O)[C@H](O)[C@@H]1O [DOXIFLURIDINE]	Not Active	Not Active	Not Active	Not Active	Not Active	Not Active	Not Active	Not Active						
CC[C@H]1CN2CCc3cc(OC)c(OC)cc3[C@@H]2C[C@@H]1C[C@H]1NCCc2cc(OC)c(OC)cc21 [EMETINE]	Not Active	Not Active	Not Active	Not Active	Not Active	Not Active	Not Active	Not Active						
O=c1cnn([C@@H]2O[C@H](CO)[C@@H](O)[C@H]2O)c(=O)[nH]1 [6-AZAURIDINE]	Not Active	Not Active	Not Active	Not Active	Not Active	Not Active	Not Active	Not Active						
COC(=O)CCc1ccc(OCC(O)CNC(C)C)cc1 (configuration not stated) [ESMOLOL]	Not Active	Not Active	Not Active	Not Active	Not Active	Not Active	Not Active	Not Active						
C[C@@H]1O[C@@H](O[C@@H]2C=C3CC[C@@H]4[C@H](CC[C@]5(C)[C@@H](c6ccc(=O)oc6)CC[C@]45O)[C@@]3(C)CC2)[C@H](O)[C@H](O)[C@H]1O [PROSCILLARIDIN]	Not Active	Not Active	Not Active	Not Active	Not Active	Not Active	Not Active	Not Active						
NYSTATIN	Not Active	Not Active	Not Active	Not Active	Not Active	Not Active	Not Active	Not Active	Not Active	Not Active	Not Active	Not Active		
COc1cc(N)c(Cl)cc1C(=O)NC1CCN(CCCOc2ccc(F)cc2)CC1OC (configuration not stated) [CISAPRIDE]	Not Active	Not Active	Not Active	Not Active	Not Active	Not Active	Not Active	Not Active						
C[C@@H]1C[C@H]2[C@@H]3CCC4=CC(=O)C=C[C@]4(C)[C@@]3(F)[C@@H](O)C[C@]2(C)[C@@]1(O)C(=O)CO [DEXAMETHASONE]	Not Active	Not Active	Not Active	Not Active	Not Active	Not Active	Not Active	Not Active						
O=C(c1ccccc1C(F)(F)F)N1CCC(Cc2ccccc2)CC1	Not Active	Not Active	Not Active	Not Active	Not Active	Not Active	Not Active	Not Active						
Brc1c(NC2=NCCN2)ccc2nccnc12 [BRIMONIDINE]	Not Active	Not Active	Not Active	Not Active	Not Active	Not Active	Not Active	Not Active						
CC1(C)S[C@@H]2[C@H](NC(=O)[C@H](N)c3ccccc3)C(=O)N2[C@H]1C(=O)O [AMPICILLIN]	Not Active	Not Active	Not Active	Not Active	Not Active	Not Active	Not Active	Not Active						
C[n+]1ccccc1/C=N/O.[Cl-] [PRALIDOXIME CHLORIDE]	Not Active	Not Active	Not Active	Not Active	Not Active	Not Active	Not Active	Not Active						
COc1cc2nc(N3CCN(C(=O)c4ccco4)CC3)nc(N)c2cc1OC [PRAZOSIN]	Not Active	Not Active	Not Active	Not Active	Not Active	Not Active	Not Active	Not Active						
Cc1c(OCC(F)(F)F)ccnc1C[S+]([O-])c1nc2ccccc2[nH]1 (configuration not stated) [LANSOPRAZOLE]	Not Active	Not Active	Not Active	Not Active	Not Active	Not Active	Not Active	Not Active						
CN1[C@@H]2CC[C@H]1C[C@@H](OC(=O)C(CO)c1ccccc1)C2 (some centres not stated) [ATROPINE]	Not Active	Not Active	Not Active	Not Active	Not Active	Not Active	Not Active	Not Active						

Reference: ChEMBL document CHEMBL1909046, “DrugMatrix in vitro pharmacology data”
